From patent US12129237B2, “Substituted diaminocarboxamide and diaminocarbonitrile pyrimidines, compositions thereof, and methods of treatment therewith” (SIGNAL PHARMACEUTICALS, LLC, priority 2011, dated 2024) come the findings set out here.

For this experiment, the target named is T1, JNK1 (Homo sapiens, UniProt P45983).
T1 construct: purchased Carna Biosciences
Put plainly: JNK1 biochemical assays (one or more of: time resolved fluorescence, Z'-LYTE Cascade, radioactive).

The mark [1] stands for this setting: one or more of the JNK1 biochemical assays, read-out: Act. Level (JNK1 IC50 activity level).
Setting [2] is: Table 2, JNK1 IC50 activity level, read-out: Act. Level.
[3] abbreviates: Table 3, JNK1 IC50 activity level, read-out: Act. Level.
The mark [4] stands for this setting: tested in one or more of the JNK1 biochemical assays, read-out: Act. Level (JNK1 biochemical assay IC50 activity level).

Like-named read-outs stand apart in the source and are kept apart here.

T1 sequence (P45983 whole entry): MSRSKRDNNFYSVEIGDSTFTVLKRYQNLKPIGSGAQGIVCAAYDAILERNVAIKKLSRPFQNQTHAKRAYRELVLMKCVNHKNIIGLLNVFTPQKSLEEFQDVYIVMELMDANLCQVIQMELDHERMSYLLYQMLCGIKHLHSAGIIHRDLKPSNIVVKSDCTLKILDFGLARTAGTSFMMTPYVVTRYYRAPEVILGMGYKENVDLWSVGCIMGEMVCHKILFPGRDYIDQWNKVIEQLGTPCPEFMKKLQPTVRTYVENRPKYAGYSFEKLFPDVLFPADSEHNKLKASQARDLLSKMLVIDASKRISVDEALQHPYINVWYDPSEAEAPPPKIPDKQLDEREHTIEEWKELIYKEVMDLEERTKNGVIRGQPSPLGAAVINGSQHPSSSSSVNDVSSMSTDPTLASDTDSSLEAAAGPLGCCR

`CC1(Nc2ncc(C(N)=O)c(N[C@@H]3CCC[C@H](O)C3)n2)CCC1` [Example 354, 4-((1R,3S)-3-hydroxycyclohexylamino)-2-(1-methylcyclobutylamino)pyrimidine-5-carboxamide]: the IC50 under setting [1] is less than 200 nM.
As to `CNC(=O)[C@H]1CC[C@H](Nc2ncc(C(N)=O)c(Nc3ccccc3)n2)CC1` [Example B-8, 2-((1r,4r)-4-(methylcarbamoyl)cyclohexylamino)-4-(phenylamino)pyrimidine-5-carboxamide], under setting [2], the IC50 is less than 200 nM.
For the compound `CCC(C)(C)Nc1nc(N[C@H]2CC[C@H](O)CC2)ncc1C#N` [Example C-62, 2-((1r,4r)-4-hydroxycyclohexylamino)-4-(tert-pentylamino)pyrimidine-5-carbonitrile], the IC50 under setting [3] was less than 200 nM.
Regarding `COc1ccccc1Nc1ncc(C(N)=O)c(Nc2ccccc2)n1` [Example B-15, 2-(2-methoxyphenylamino)-4-(phenylamino)pyrimidine-5-carboxamide], under setting [2], the IC50 is less than 200 nM.
In the case of `C[C@@H](Nc1nc(N[C@H]2CC[C@H](O)CC2)ncc1C(N)=O)C1CC1` [Example 261, 4-((R)-1-cyclopropylethylamino)-2-((1r,4R)-4-hydroxycyclohexylamino)pyrimidine-5-carboxamide], the IC50 under setting [1] was less than 200 nM.
Same read-out and setting: as for `CC1(C)CCC(Nc2nc(NC3CCC3)ncc2C(N)=O)CC1O` (stereo not drawn) [Example 428, 2-(cyclobutylamino)-4-(3-hydroxy-4,4-dimethylcyclohexylamino)pyrimidine-5-carboxamide], the figure is less than 200 nM.
As to `CO[C@H]1CC[C@H](Nc2ncc(C(N)=O)c(N[C@@H]3CCC[C@@H]3CO)n2)CC1` [Example A-36, 4-((1R,2S)-2-(hydroxymethyl)cyclopentylamino)-2-((1r,4R)-4-methoxycyclohexylamino)pyrimidine-5-carboxamide], the IC50 under setting [4] is less than 200 nM.
Take `CC1(Nc2nc(N[C@H]3CC[C@H](O)CC3)ncc2C(N)=O)CCCC1` [Example 322, 2-((1r,4r)-4-hydroxycyclohexylamino)-4-(1-methylcyclopentylamino)pyrimidine-5-carboxamide]: the IC50 under setting [1] was less than 200 nM.
Turning to `CC(C)(C)Nc1nc(NC2CCC(F)(F)CC2)ncc1C(N)=O` [Example 318, 4-(tert-butylamino)-2-(4,4-difluorocyclohexylamino)pyrimidine-5-carboxamide], the IC50 under setting [1] is less than 200 nM.
For `CN(C)C(=O)[C@H]1CC[C@@H](Nc2nc(NC3CCOCC3)ncc2C(N)=O)CC1` [Example A-116, 4-((1s,4s)-4-(dimethylcarbamoyl)cyclohexylamino)-2-(tetrahydro-2H-pyran-4-ylamino)pyrimidine-5-carboxamide], the IC50 under setting [4] was in the range of 200 to 800 nM.
Still for that read-out and setting: under `CO[C@H]1CC[C@H](Nc2ncc(C(N)=O)c(NC3CCC4(CC3)OCCO4)n2)CC1` [Example A-121, 4-(1,4-dioxaspiro[4.5]decan-8-ylamino)-2-((1r,4r)-4-methoxycyclohexylamino)pyrimidine-5-carboxamide] stands less than 200 nM; under `CCO[C@H]1CC[C@H](Nc2ncc(C(N)=O)c(N[C@H]3CCCC[C@@H]3O)n2)CC1` [Example A-77, 2-((1r,4S)-4-ethoxycyclohexylamino)-4-((1S,2S)-2-hydroxycyclohexylamino)pyrimidine-5-carboxamide], less than 200 nM; under `CO[C@H]1CC[C@H](Nc2ncc(C(N)=O)c(NC3CCC3)n2)CC1` [Example A-164, 4-(cyclobutylamino)-2-((1r,4r)-4-methoxycyclohexylamino)pyrimidine-5-carboxamide], less than 200 nM.
Take `Cc1cc(Nc2ncc(C(N)=O)c(Nc3ccccc3)n2)n[nH]1` [Example B-33, 2-(5-methyl-1H-pyrazol-3-ylamino)-4-(phenylamino)pyrimidine-5-carboxamide]: under setting [2], the IC50 was 200 to 800 nM.
Consider `NC(=O)c1cnc(N[C@H]2CC[C@H](O)CC2)nc1NCCC1CC1` [Example 218, 4-(2-cyclopropylethylamino)-2-((1r,4r)-4-hydroxycyclohexylamino)pyrimidine-5-carboxamide], for which the IC50 under setting [1] was less than 200 nM.
Still for that read-out and setting: under `CC(C)(Nc1nc(NC23CCC(O)(CC2)CC3)ncc1C(N)=O)C1CC1` [Example 479, 4-(2-cyclopropylpropan-2-ylamino)-2-(4-hydroxybicyclo[2.2.2]octan-1-ylamino)pyrimidine-5-carboxamide] stands less than 200 nM.
In the case of `Cc1ccccc1Nc1ncc(C(N)=O)c(Nc2ccccc2)n1` [Example B-30, 4-(phenylamino)-2-(o-tolylamino)pyrimidine-5-carboxamide], under setting [2], the IC50 was less than 200 nM.
On to `CO[C@H]1CC[C@H](Nc2ncc(C(N)=O)c(N[C@H]3CCCC[C@](C)(O)C3)n2)CC1` [Example A-184, 4-((1S,3S)-3-hydroxy-3-methylcycloheptylamino)-2-((1r,4S)-4-methoxycyclohexylamino)pyrimidine-5-carboxamide], for which, under setting [4], the IC50 is 200 to 800 nM.
Take `CC(C)(C)Nc1nc(NC23CCC(O)(CC2)C3)ncc1C(N)=O` [Example 399, 4-(tert-butylamino)-2-(4-hydroxybicyclo[2.2.1]heptan-1-ylamino)pyrimidine-5-carboxamide]: the IC50 under setting [1] is less than 200 nM.
For `CCO[C@H]1CC[C@H](Nc2ncc(C(N)=O)c(N[C@@H](C)C3CCC3)n2)CC1` [Example 293, 4-((S)-1-cyclobutylethylamino)-2-((1r,4S)-4-ethoxycyclohexylamino)pyrimidine-5-carboxamide], the IC50 under setting [1] was less than 200 nM.
For the compound `CCO[C@H]1CC[C@H](Nc2ncc(C(N)=O)c(N[C@@H]3CCC(O)C3)n2)CC1` (stereo partly drawn) [Example A-96, 2-((1r,4R)-4-ethoxycyclohexylamino)-4-((1R,3S)-3-hydroxycyclopentylamino)pyrimidine-5-carboxamide], the IC50 under setting [4] was less than 200 nM.
Still for that read-out and setting: under `CCO[C@H]1CC[C@H](Nc2ncc(C(N)=O)c(N[C@H]3CCOC3)n2)CC1` [Example A-105, 2-((1r,4S)-4-ethoxycyclohexylamino)-4-((S)-tetrahydrofuran-3-ylamino)pyrimidine-5-carboxamide] stands less than 200 nM; under `CCO[C@H]1CC[C@H](Nc2ncc(C(N)=O)c(N[C@@H]3CC[C@@H](C)[C@H](O)C3)n2)CC1` [Example A-172, 2-((1r,4R)-4-ethoxycyclohexylamino)-4-((1R,3R,4R)-3-hydroxy-4-methylcyclohexylamino)pyrimidine-5-carboxamide], less than 200 nM.
As to `COc1ccc(CNc2ncc(C(N)=O)c(Nc3ccccc3)n2)cc1OC` [Example B-43, 2-(3,4-dimethoxybenzylamino)-4-(phenylamino)pyrimidine-5-carboxamide], the IC50 under setting [2] fell in the range of 200 to 800 nM.
With `C[C@H](Nc1ncc(C(N)=O)c(N[C@@H]2CC[C@@H](C)[C@H](O)C2)n1)C1CCC1` [Example 460, 2-((S)-1-cyclobutylethylamino)-4-((1R,3R,4R)-3-hydroxy-4-methylcyclohexylamino)pyrimidine-5-carboxamide], the IC50 under setting [1] is less than 200 nM.
As for `CC(=O)N1CCC(Nc2nc(N[C@@H](C)C3CCCCC3)ncc2C(N)=O)CC1` [Example A-127, (S)-4-(1-acetylpiperidin-4-ylamino)-2-(1-cyclohexylethylamino)pyrimidine-5-carboxamide], under setting [4], the IC50 is less than 200 nM.
For `NC(=O)c1cnc(N[C@H]2CCc3ncccc3C2)nc1N[C@@H]1CCCC[C@H](O)C1` [Example B-97, 4-((1R,3S)-3-hydroxycycloheptylamino)-2-((S)-5,6,7,8-tetrahydroquinolin-6-ylamino)pyrimidine-5-carboxamide], the IC50 under setting [2] is less than 200 nM.
Regarding `CO[C@H]1CC[C@H](Nc2ncc(C(N)=O)c(N[C@H]3CC[C@@H](O)C3)n2)CC1` [Example A-80, 4-((1S,3R)-3-hydroxycyclopentylamino)-2-((1r,4S)-4-methoxycyclohexylamino)pyrimidine-5-carboxamide], the IC50 under setting [4] was less than 200 nM.
Same read-out and setting: under `C[C@]1(O)CC[C@H](Nc2ncc(C(N)=O)c(N[C@@H]3CCC[C@H](O)C3)n2)CC1` [Example A-22, 2-((1r,4R)-4-hydroxy-4-methylcyclohexylamino)-4-((1R,3S)-3-hydroxycyclohexylamino)pyrimidine-5-carboxamide] stands less than 200 nM.
With `NC(=O)c1cnc(NC2CCCC(O)CC2)nc1NC1CCC1` (stereo not drawn) [Example 249, 4-(cyclobutylamino)-2-(4-hydroxycycloheptylamino)pyrimidine-5-carboxamide], the IC50 under setting [1] is less than 200 nM.
Turning to `CC(C)(C)Nc1nc(N[C@H]2CCCOC2)ncc1C(N)=O` [Example 300, (S)-4-(tert-butylamino)-2-(tetrahydro-2H-pyran-3-ylamino)pyrimidine-5-carboxamide], the IC50 under setting [1] was less than 200 nM.
For the compound `CC(C)(C)Nc1nc(N[C@H]2CC[C@](C)(O)CC2)ncc1C(N)=O` [Example 302, 4-(tert-butylamino)-2-((1r,4r)-4-hydroxy-4-methylcyclohexylamino)pyrimidine-5-carboxamide], the IC50 under setting [1] is less than 200 nM.
As to `CO[C@H]1CC[C@H](Nc2ncc(C#N)c(N[C@H]3CCCC[C@](C)(O)C3)n2)CC1` [Example C-51, 4-((1S,3S)-3-hydroxy-3-methylcycloheptylamino)-2-((1r,4S)-4-methoxycyclohexylamino) pyrimidine-5-carbonitrile], the IC50 under setting [3] lay in the range of 1000 to 10000 nM.
Turning to `NC(=O)c1cnc(N[C@H]2CC[C@H](O)CC2)nc1NC1CC(F)(F)C1` [Example 217, 4-(3,3-difluorocyclobutylamino)-2-((1r,4r)-4-hydroxycyclohexylamino)pyrimidine-5-carboxamide], the IC50 under setting [1] was less than 200 nM.
With `CCO[C@H]1CC[C@H](Nc2ncc(C(N)=O)c(N[C@@H]3CCCOC3)n2)CC1` [Example A-72, 2-((1r,4R)-4-ethoxycyclohexylamino)-4-((R)-tetrahydro-2H-pyran-3-ylamino)pyrimidine-5-carboxamide], the IC50 under setting [4] was less than 200 nM.
As to `NC(=O)c1cnc(NC2CCC2)nc1N[C@@H]1CCCC[C@H](O)C1` [Example 339, 2-(cyclobutylamino)-4-((1R,3S)-3-hydroxycycloheptylamino)pyrimidine-5-carboxamide], under setting [1], the IC50 is less than 200 nM.
